Values quoted from earlier work, collected in patent US20250215044A1, “Compounds and Methods for Inhibiting LPA” (Ionis Pharmaceuticals, Inc., priority 2023, published 2025).

Tested on: plasma Lp(a)
Parameters: concentration or dose not given beside the values
Settings: clinical setting

**Q.** For COc1cc(F)c(C(C)C)cc1-c1ccc(C(F)(F)F)cc1CN1C(=O)O[C@H](c2cc(C(F)(F)F)cc(C(F)(F)F)c2)[C@@H]1C [Anacetrapib], which “reduction of plasma Lp(a) levels” value is on record?
**A.** The value was 36%.

**Q.** For CC(C)c1cc(Oc2c(Br)cc(NC(=O)CC(=O)O)cc2Br)ccc1O [Epirotirome], which “reduction of plasma Lp(a) levels” value is on record?
**A.** Its value is 43%.

**Q.** With O=C(NC1CCN(CCCCC2(C(=O)NCC(F)(F)F)c3ccccc3-c3ccccc32)CC1)c1ccccc1-c1ccc(C(F)(F)F)cc1 [Lomitapide] as the molecule, how does the “reduction of plasma Lp(a) levels” value read?
**A.** The value was 17%.

**Q.** With O=C(O)c1cccnc1 [Niaspan] as the molecule, how does the “reduction of plasma Lp(a) levels” value read?
**A.** Its value is 39%.

**Q.** Which “reduction of plasma Lp(a) levels” value does the source give for CC(=O)Oc1ccccc1C(=O)O [aspirin] here?
**A.** The value was 18%.

**Q.** Which “reduction of plasma Lp(a) levels” value does the source give for Mipomersen here?
**A.** Its value is 32%.
